Test results from PMC7775144, “Enzyme Inhibitory Kinetics and Molecular Docking Studies of Halo-Substituted Mixed Ester/Amide-Based Derivatives as Jack Bean Urease Inhibitors” (BioMed Research International, 2020).
“Also recorded” adds a separate entry of the source. Where two headings read alike, the source gives them in different places.

Columns and labels:
[1] = target: T1, jack bean urease (Canavalia ensiformis, UniProt P07374); assay: biochemical; assay type: biochemical
Protocol: The inhibitory effects on urease activity were done based on the Weatherburn method, using the indophenol scheme by determining the amount of ammonia produced. Briefly, 20 μL of jack bean urease enzyme (0.135 units) and 20 μL of the tested compounds were taken in 50 μL buffer and were incubated for 30 min. Temperature was kept at 37°C in a 96-well plate reader. The buffer solution was made by 0.01 molar K2HPO4/KH2PO4, 1 mM EDTA, 100 mM urea, and 0.01 M LiCl; pH was maintained at 7.0. Then, 50 μL of phenol reagent (1% w/v phenol and 0.005% w/v sodium nitroprusside) was added in 50 μL of alkali reagent in each well. The alkali reagent was prepared by 0.5% w/v NaOH and 0.1% NaOCl. Absorbance was measured at 625 nm using OPTIMax, a tunable microplate reader, after 10 min interval in a triplicate manner. The thiourea was used as a standard jack bean urease inhibitor. The data has been analyzed using software, GraphPad Prism, and statistical analysis (SD) was performed by using SigmaPlot software to get SD values of the bioassay results.

[2] = target: T1, jack bean urease; assay: Kinetic study of jack bean urease inhibition (Lineweaver-Burk plots); assay type: biochemical; parameters: 1/Vmax: unit not given here
Protocol: The derivative 4b was selected on the basis of its high activity for the determination of its kinetic mechanism on jack bean urease. The enzyme inhibition EI and enzyme-substrate inhibition ESI constants for compound 4b have been determined. The inhibitor concentration used in the kinetic experiments was 0.00, 0.0008, and 0.0016 μM while concentration of substrate was 0.0, 0.1, 0.2, 0.3, and 0.4 mM. The kinetic mechanism was determined by plotting of 1/V versus 1/[S] in the presence of inhibitor concentrations which gave a series of straight lines as shown in Figure 3. […] The EI dissociation constant (Ki) and ESI dissociation constant (Ki′) for compound 4b have also been determined from Lineweaver-Burk plots.

[3] = target: T1, jack bean urease; settings: jack bean urease inhibitors already reported; ref [35], [36]; cited from earlier work
[4] = n = 3, 30 min, 37°C, pH 7.0, 100 mM urea, read-out: Urease (jack bean) inhibition IC50 ± SD

T1 sequence (P07374 whole entry, looked up): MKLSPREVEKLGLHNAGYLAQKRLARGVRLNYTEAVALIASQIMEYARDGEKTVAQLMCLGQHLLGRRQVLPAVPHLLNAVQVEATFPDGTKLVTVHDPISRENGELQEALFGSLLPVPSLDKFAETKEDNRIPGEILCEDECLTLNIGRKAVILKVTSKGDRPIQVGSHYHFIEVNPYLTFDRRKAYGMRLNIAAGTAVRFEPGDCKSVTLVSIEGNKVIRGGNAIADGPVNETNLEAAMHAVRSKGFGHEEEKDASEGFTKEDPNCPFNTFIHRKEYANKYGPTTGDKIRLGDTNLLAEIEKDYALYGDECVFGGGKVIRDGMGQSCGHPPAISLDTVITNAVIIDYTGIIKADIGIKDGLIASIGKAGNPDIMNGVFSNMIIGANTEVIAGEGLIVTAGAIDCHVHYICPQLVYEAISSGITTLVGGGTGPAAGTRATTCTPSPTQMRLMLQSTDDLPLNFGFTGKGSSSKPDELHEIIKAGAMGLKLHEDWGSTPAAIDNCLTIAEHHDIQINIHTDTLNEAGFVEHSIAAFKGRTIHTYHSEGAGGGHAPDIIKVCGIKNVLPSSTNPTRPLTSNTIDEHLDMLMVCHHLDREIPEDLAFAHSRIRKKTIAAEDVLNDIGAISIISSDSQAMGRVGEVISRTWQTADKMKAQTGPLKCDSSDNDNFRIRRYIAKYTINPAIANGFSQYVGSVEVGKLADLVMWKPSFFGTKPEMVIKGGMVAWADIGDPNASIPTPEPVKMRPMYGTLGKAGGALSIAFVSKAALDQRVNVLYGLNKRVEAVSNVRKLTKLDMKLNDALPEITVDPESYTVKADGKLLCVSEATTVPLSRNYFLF

Q: With “2-((5-Isopropyl-2-methyl phenyl) Amino)-2-oxoethyl 2-Bromobenzoate [4i]” as the compound, how does the IC50 [1, 4] read?
A: The IC50 was 21.1 ± 0.7 nM.

Q: For “2-((5-Isopropyl-2-methyl phenyl) Amino)-2-oxoethyl 3,4-Dichlorobenzoate [4k]”, which IC50 [1, 4] is on record?
A: The IC50 was 50.1 ± 1.7 nM.

Q: With “2-((5-Isopropyl-2-methyl phenyl) Amino)-2-oxoethyl 3-Bromobenzoate [4j]” as the compound, how does the IC50 [1, 4] read?
A: Its IC50 is 2.1 ± 0.1 nM.

Q: What about the “times more active than derivative 4k” value ([1]; ratio of urease inhibitory activity, 4j versus 4k) of the same compound?
A: Its value is 25.

Q: For `CC(C)c1ccc(NC(=O)COC(=O)c2ccccc2Cl)cc1` [4a, 2-((4-Isopropylphenyl)amino)-2-oxoethyl 2-Chlorobenzoate], which melting point is on record?
A: Its melting point is 94 to 96 °C.

Q: And the IC50 [1]?
A: The IC50 was 57.1 ± 1.9 nM.

Q: For `CC(C)c1ccc(NC(=O)COC(=O)c2cccc(Cl)c2)cc1` [4b, 2-((4-Isopropylphenyl)amino)-2-oxoethyl 3-Chlorobenzoate], which melting point is on record?
A: The melting point was 96 to 98 °C.

Q: And the Ki [2]?
A: Its Ki is 0.7 nM.

Q: And the Inhibition type ([2]; Lineweaver-Burk plots)?
A: The Inhibition type was “mixed type of inhibitor; also recorded: mixed type of inhibition”.

Q: What about the “Ki′ (ESI dissociation constant)” value ([2]; from Lineweaver-Burk plots) of the same compound?
A: The value was 1.8 nM.

Q: And the 1/Vmax ([2]; inhibitor dose 0.0016 μM, substrate urea)?
A: Its 1/Vmax is 0.00088.

Q: What about the IC50 [1] of the same compound?
A: Its IC50 is 1.6 ± 0.2 nM.

Q: For `CC(C)c1ccc(NC(=O)COC(=O)c2ccc(Cl)c(Cl)c2)cc1` [4c, 2-((4-Isopropylphenyl)amino)-2-oxoethyl 3,4-Dichlorobenzoate], which melting point is on record?
A: The melting point was 107 to 108 °C.

Q: What about the IC50 [1] of the same compound?
A: Its IC50 is 18.2 ± 0.6 nM.

Q: Which melting point does the source give for `CC(C)c1ccc(NC(=O)COC(=O)c2ccccc2Br)cc1` [4d, 2-((4-Isopropylphenyl)amino)-2-oxoethyl 2-Bromobenzoate] here?
A: The melting point was 89 to 90 °C.

Q: What about the IC50 [1] of the same compound?
A: The IC50 was 3.8 ± 0.2 nM.

Q: With `CC(C)c1ccc(NC(=O)COC(=O)c2cccc(Br)c2)cc1` [4e, 2-((4-Isopropylphenyl)amino)-2-oxoethyl 3-Bromobenzoate] as the compound, how does the melting point read?
A: Its melting point is 91 to 92 °C.

Q: What about the IC50 [1] of the same compound?
A: The IC50 was 62.7 ± 2.1 nM.

Q: Which results are given for `CC(C)c1ccc(NC(=O)COC(=O)c2ccccc2I)cc1` [4f, 2-((4-Isopropylphenyl)amino)-2-oxoethyl 2-Iodobenzoate]?
A: melting point: 91 to 92 °C; IC50 [1]: 31.2 ± 1.1 nM

Q: With `Cc1ccc(C(C)C)cc1NC(=O)COC(=O)c1ccccc1Cl` [4g, 2-((5-Isopropyl-2-methylphenyl) Amino)-2-oxoethyl 2-Chloro Benzoate] as the compound, how does the melting point read?
A: The melting point was 115 to 116 °C.

Q: What about the IC50 [1] of the same compound?
A: Its IC50 is 3.8 ± 0.2 nM.

Q: Which IC50 [1] does the source give for `Cc1ccc(C(C)C)cc1NC(=O)COC(=O)c1ccccc1I` [4l, 2-((5-Isopropyl-2-methylphenyl) Amino)-2-oxoethyl 2-Iodobenzoate] here?
A: The IC50 was 11.5 ± 3.9 nM.

Q: Which IC50 [1, 4] does the source give for `NC(N)=S` [Thiourea, thiourea, reference compound] here?
A: Its IC50 is 472 ± 135 nM.

Q: Which IC50 [3] does the source give for `Cc1ccc(C(=O)NC(=S)Nc2coc(=O)c3ccccc23)cc1` [compound 2] here?
A: The IC50 was 6.5 nM.
